Test results published in ChEMBL document CHEMBL1201862, “PubChem BioAssay data set” (2004).
Calls of active or inactive are those of the source.

Assays:
[1] = target: Peroxisome proliferator-activated receptor gamma/Nuclear receptor coactivator 3 (Homo sapiens, UniProt P37231); test: (§1) TR-FRET dose response biochemical High Throughput Screening assay for agonists of the steroid receptor coactivator 3 (SRC-3) recruitment by the peroxisome proliferator-activated receptor gamma (PPAR gamma): non-selective agonists. [Related pubchem assays: 1301 (Confirmation screen.), 1048 (Primary screen.)]; type: functional
Fibrinogen beta chain [2] = target: T1, Fibrinogen beta chain (Homo sapiens, UniProt P02675); test: Fluorescence polarization-based biochemical high throughput dose response assay to identify inhibitors that disrupt the binding of a cyclic peptide (Tn7) to the fibrin proteolytic product D-Dimer and fragment E complex [DD(E )].
T1 sequence (P02675 whole entry, the tested form may be a part): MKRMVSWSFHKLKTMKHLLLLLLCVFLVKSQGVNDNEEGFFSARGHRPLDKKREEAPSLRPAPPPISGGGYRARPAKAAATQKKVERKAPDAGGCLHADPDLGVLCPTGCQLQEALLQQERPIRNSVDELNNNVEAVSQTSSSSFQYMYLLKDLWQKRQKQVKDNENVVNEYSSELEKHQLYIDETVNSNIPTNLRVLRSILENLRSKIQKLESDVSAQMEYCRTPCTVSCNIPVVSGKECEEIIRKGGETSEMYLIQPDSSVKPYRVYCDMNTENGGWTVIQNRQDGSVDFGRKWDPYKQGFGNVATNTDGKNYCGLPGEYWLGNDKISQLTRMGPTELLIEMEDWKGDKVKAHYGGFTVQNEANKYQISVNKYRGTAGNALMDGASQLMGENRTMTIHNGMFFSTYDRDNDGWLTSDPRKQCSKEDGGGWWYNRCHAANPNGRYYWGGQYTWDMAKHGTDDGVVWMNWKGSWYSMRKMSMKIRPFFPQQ

[3] = target: Peroxisome proliferator-activated receptor gamma/Nuclear receptor coactivator 1 (Homo sapiens, UniProt P37231); test: as §1, with “1 (SRC-1)” for “3 (SRC-3)”, “assays (depositor defined):AID1300, AID1808, AID504735, AID631]” for “assays: 1301 (Confirmation screen.), 1048 (Primary screen.)]”; type: protein assay
Fibrinogen beta chain [4] = target: T1, Fibrinogen beta chain; test: Fluorescence polarization-based biochemical high throughput dose response assay to identify inhibitors that disrupt the binding of a cyclic peptide (Tn6) to the fibrin proteolytic product D-Dimer and fragment E complex [DD(E )].
[5] = target: T2, Heat shock factor protein 1 (Mus musculus, UniProt P38532); test: enhancement of HSF1-driven luciferase signal – cell-based, NIH3T3, luminescence, dose retest, confirmation (AID 435004); type: functional;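 further: stress induced by proteasome inhibitor MG132 added 30 min after compound; luciferase reporter driven by HSF1 response element in NIH3T3 cells; actives raise luminescence as potentiators of the MG132 stress response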
T2 sequence (P38532 whole entry): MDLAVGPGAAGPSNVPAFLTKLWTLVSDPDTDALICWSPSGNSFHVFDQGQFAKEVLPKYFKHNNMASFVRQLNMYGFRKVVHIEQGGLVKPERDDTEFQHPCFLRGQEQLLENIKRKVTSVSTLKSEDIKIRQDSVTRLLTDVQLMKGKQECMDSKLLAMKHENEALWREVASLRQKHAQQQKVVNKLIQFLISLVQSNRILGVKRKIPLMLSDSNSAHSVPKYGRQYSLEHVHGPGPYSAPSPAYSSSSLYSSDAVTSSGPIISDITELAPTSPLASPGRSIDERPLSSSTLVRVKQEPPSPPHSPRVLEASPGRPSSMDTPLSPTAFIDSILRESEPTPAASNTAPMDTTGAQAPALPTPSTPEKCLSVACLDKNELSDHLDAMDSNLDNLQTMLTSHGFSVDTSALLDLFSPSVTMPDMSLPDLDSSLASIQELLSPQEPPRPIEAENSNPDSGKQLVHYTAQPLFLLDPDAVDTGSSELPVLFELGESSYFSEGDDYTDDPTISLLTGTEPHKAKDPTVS

[6] = Counterscreen for activators of the function of SWI/SNF related, matrix associated, actin dependent regulator of chromatin, subfamily a, member 2 (SMARCA2, BRM): Luminescence-based cell-based high throughput dose response assay to identify non-selective compounds using the VP16 reporter assay.; type: functional
[7] = target: Peroxisome proliferator-activated receptor gamma/Nuclear receptor coactivator 2 (Homo sapiens, UniProt P37231); test: TR-FRET dose response biochemical High Throughput Screening assay for agonists of the steroid receptor coactivator 2 (SRC-2) recruitment by the peroxisome proliferator-activated receptor gamma (PPAR gamma): non-selective agonists. [Related pubchem assays: 1297, 1032 ]; type: functional
Nonstructural protein 1 = Nonstructural protein 1 (Influenza A virus, UniProt Q194T2); type: functional, Influenza A virus (A/California/07/2009(H1N1))
[8] = target: SWI/SNF-related matrix-associated actin-dependent regulator of chromatin subfamily A member 2 (Homo sapiens, UniProt P51531); test: Luminescence-based cell-based high throughput dose response assay to identify activators of the function of SWI/SNF related, matrix associated, actin dependent regulator of chromatin, subfamily a, member 2 (SMARCA2, BRM).; type: functional
SWI/SNF-related matrix-associated actin-dependent regulator of chromatin subfamily A member 2, sequence (P51531 whole entry, the tested form may be a part): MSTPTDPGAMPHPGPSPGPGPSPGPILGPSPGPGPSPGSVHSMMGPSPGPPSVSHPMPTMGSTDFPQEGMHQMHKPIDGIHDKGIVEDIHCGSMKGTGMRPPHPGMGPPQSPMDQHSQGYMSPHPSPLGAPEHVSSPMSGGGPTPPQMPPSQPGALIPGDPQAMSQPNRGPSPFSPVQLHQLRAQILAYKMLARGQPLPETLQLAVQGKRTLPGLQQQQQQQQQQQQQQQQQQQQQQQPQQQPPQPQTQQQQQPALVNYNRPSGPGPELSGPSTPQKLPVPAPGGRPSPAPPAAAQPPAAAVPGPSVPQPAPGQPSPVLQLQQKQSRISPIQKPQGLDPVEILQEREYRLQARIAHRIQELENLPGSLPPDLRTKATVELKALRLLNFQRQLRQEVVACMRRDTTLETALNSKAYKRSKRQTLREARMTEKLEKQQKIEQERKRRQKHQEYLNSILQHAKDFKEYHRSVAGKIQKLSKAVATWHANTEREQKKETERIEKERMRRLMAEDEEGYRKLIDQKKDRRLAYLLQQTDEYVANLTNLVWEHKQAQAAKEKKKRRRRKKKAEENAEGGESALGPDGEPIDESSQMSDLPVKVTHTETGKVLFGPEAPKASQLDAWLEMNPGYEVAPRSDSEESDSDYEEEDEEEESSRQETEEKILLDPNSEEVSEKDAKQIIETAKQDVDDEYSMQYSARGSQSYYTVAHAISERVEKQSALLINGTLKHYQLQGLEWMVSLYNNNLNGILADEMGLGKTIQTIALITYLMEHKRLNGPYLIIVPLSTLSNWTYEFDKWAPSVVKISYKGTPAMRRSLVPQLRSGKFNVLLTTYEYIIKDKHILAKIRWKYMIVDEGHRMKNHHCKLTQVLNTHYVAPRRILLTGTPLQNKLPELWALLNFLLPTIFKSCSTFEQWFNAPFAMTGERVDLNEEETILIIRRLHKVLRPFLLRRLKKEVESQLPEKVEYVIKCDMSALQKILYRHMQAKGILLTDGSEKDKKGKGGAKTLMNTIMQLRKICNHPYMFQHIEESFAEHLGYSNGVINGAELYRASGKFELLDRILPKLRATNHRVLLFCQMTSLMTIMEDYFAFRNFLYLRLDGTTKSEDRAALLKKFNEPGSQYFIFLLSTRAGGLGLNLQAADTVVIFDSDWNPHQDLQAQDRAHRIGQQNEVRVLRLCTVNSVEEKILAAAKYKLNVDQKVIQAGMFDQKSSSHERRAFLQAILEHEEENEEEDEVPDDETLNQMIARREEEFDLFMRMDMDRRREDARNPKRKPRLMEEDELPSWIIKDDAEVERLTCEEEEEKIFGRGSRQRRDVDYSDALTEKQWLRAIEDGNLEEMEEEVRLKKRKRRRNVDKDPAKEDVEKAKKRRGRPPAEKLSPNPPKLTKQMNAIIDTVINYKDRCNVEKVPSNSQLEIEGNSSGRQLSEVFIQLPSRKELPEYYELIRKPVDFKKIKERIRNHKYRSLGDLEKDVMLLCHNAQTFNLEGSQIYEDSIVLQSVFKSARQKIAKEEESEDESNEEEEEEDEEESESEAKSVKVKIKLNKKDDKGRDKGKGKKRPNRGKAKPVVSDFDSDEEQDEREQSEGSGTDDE

[9] = target: T3, Oxysterols receptor LXR-beta (Homo sapiens, UniProt P55055); test: LXR agonists, Gal4 luciferase reporter, dose response, counter-screen for ssDAF-12 agonist project, cell-based, luminescence, HEK293, S. stercoralis campaign (AID 720737); type: functional; conditions: read-out: IC50 (the source's name)
T3 sequence (P55055 whole entry): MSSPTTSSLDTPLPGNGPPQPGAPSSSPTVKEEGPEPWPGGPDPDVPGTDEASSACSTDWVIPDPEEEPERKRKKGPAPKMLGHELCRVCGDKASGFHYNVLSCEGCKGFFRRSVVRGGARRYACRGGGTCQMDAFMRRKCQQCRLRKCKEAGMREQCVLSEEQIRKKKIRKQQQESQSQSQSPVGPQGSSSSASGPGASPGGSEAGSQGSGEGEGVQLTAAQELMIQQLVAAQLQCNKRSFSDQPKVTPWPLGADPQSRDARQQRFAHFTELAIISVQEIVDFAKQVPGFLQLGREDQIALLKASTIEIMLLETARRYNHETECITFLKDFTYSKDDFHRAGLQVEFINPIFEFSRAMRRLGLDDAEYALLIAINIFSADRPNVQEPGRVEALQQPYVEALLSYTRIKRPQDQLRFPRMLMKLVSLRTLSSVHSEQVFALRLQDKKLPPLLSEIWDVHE

[10] = Luminescence-based cell-based high throughput dose response assay to identify activators of the DAF-12 from the parasite S. stercoralis (ssDAF-12).; type: functional
[11] = target: T4, Rac GTPase-activating protein 1 (Homo sapiens, UniProt Q9H0H5); test: blockers of MgcRacGAP-driven Rac1 GTP hydrolysis – biochemical, ADP Hunter fluorescence, primary and confirmatory, confirmation (AID 624330); type: functional
T4 sequence (Q9H0H5 whole entry): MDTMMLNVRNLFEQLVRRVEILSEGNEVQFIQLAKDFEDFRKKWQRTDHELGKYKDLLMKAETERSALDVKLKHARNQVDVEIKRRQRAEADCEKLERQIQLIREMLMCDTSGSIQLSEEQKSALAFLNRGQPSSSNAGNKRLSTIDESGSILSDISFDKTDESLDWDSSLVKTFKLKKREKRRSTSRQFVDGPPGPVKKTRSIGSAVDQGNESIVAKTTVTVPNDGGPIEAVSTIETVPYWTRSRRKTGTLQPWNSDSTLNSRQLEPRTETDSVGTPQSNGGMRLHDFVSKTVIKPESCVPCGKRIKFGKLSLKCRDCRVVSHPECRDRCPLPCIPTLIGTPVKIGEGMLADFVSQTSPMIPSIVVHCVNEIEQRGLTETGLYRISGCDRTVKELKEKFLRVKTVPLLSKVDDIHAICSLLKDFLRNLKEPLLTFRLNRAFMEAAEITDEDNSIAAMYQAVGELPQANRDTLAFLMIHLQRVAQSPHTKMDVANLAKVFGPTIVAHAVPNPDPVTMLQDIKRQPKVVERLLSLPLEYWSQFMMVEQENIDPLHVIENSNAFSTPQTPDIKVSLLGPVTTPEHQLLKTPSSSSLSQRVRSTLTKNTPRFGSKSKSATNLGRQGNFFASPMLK

Fatty acid synthase [12] = target: T5, Fatty acid synthase (Homo sapiens, UniProt P49327); test: inhibition of human FAS-TE enzyme activity – biochemical, kinetic fluorescence intensity, dose response (AID 624326); type: functional;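 further: rate of fluorescence rise from hydrolysis of a fluorogenic O-methyl fluorescein ester substrate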
T5 sequence (P49327 whole entry): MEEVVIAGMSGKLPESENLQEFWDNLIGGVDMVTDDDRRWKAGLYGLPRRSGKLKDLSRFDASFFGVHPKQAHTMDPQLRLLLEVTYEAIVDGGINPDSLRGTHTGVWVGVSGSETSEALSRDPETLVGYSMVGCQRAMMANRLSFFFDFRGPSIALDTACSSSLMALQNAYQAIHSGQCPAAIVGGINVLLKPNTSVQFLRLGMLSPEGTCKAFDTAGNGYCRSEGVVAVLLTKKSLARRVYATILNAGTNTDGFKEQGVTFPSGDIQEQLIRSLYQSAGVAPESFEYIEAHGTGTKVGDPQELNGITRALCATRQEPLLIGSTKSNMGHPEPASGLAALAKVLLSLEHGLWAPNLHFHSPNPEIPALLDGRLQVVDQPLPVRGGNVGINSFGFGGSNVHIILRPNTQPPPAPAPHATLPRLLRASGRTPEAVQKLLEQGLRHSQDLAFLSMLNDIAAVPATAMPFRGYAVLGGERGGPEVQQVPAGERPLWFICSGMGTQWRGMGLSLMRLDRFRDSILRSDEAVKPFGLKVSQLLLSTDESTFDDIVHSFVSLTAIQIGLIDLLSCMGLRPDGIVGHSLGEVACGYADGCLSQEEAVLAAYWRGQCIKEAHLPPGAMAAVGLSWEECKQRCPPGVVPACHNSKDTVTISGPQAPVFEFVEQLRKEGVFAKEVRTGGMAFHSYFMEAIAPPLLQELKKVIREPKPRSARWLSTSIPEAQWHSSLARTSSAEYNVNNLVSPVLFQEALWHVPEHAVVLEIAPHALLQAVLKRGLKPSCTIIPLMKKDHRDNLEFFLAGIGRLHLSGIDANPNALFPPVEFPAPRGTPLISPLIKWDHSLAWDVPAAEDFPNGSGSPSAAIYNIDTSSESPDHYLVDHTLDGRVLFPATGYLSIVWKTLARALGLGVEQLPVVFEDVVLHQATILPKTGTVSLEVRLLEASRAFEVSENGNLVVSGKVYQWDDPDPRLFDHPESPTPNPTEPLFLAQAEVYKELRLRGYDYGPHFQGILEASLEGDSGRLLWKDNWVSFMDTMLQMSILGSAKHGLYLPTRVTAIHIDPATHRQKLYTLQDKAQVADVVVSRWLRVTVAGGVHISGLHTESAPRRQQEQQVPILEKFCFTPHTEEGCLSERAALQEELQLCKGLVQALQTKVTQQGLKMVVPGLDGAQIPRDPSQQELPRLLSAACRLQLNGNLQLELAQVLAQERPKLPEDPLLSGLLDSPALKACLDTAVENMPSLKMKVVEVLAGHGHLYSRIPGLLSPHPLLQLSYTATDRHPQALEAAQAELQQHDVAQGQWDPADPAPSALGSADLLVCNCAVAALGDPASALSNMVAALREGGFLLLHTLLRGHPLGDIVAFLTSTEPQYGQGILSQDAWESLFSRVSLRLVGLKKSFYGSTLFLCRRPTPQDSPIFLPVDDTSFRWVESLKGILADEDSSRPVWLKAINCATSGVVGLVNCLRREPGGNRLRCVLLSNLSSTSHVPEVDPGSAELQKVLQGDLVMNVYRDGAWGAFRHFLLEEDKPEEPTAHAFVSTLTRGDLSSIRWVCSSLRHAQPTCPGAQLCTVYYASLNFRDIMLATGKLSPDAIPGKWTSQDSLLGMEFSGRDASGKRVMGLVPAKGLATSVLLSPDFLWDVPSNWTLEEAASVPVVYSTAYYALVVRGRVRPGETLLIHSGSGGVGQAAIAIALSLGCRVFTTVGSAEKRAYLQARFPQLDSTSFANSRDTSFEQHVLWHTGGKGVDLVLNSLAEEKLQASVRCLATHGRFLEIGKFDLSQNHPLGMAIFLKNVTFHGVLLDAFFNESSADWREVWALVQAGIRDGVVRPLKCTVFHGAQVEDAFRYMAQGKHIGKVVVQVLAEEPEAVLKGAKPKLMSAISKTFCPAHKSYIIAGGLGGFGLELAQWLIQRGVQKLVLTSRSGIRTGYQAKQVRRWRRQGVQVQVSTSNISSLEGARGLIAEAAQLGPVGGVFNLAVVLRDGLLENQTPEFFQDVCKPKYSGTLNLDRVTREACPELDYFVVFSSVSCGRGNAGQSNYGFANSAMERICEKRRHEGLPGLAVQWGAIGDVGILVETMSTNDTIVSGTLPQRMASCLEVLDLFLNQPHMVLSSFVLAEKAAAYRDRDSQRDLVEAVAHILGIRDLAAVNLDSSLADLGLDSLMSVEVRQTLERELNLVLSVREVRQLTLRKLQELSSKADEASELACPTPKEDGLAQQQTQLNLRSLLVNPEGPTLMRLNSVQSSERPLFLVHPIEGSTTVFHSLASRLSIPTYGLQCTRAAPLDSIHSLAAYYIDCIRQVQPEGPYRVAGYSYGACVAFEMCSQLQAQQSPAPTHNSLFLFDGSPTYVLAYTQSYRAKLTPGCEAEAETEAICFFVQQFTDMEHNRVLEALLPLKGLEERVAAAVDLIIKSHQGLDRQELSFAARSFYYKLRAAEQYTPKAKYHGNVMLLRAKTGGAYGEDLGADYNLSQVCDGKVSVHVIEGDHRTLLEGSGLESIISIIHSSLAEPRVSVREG

Fatty acid synthase [13] = target: T5, Fatty acid synthase; test: inhibition of human FAS-TE enzyme activity – biochemical, endpoint fluorescence intensity, uHTS hits, dose response (AID 624327); type: functional;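 further: fluorescence from hydrolysis of an O-methyl fluorescein acyl ester substrate by the enzyme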
[14] = viability loss in HeLa cells – cytotoxicity control for MgcRacGAP inhibitor project, dose response (AID 624300); type: functional
[15] = target: Neuropeptide Y receptor type 2 (Homo sapiens, UniProt P49146); test: IC50 for human NPY-Y2 blockade – cell-based, counter-screen for NPY-Y1 antagonist project, dose response (AID 1278); type: functional
[16] = target: Mitogen-activated protein kinase 10 (Homo sapiens, UniProt P53779); test: Dose response biochemical screening assay for inhibitors of c-Jun N-Terminal Kinase 3 (JNK3). [Related pubchem assays: 746 ]
[17] = target: DNA dC->dU-editing enzyme APOBEC-3A (Homo sapiens, UniProt P31941); test: Dose Response confirmation of small molecule APOBEC3A DNA Deaminase Inhibitors via a fluorescence-based single-stranded DNA deaminase assay. [Related pubchem assays (depositor defined):AID493011, AID493024]; type: functional
[18] = target: DNA dC->dU-editing enzyme APOBEC-3G (Homo sapiens, UniProt Q9HC16); type: functional;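 further: Dose-response counterscreen measuring inhibition of APOBEC3G DNA deaminase activity, run while confirming APOBEC3A inhibitors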
[19] = target: G-protein coupled receptor 183 (Homo sapiens, UniProt P32249); test: SAR confirmation of small molecule antagonists of the EBI2 receptor via a luminescent beta-arrestin assa.; type: functional
G-protein coupled receptor 183, sequence (P32249 whole entry): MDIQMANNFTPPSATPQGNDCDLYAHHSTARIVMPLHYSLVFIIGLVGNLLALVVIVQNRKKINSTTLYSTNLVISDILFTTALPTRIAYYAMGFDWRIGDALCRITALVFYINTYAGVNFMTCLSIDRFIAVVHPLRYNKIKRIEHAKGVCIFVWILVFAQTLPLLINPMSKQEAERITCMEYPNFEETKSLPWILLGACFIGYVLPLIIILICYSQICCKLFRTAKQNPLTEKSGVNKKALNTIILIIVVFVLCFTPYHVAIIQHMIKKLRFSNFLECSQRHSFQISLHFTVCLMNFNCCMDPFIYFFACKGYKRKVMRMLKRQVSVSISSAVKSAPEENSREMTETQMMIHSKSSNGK

[20] = Dd2 parasite growth inhibition in erythrocytes – SYBR Green, dry powder samples, set 9, dose response (AID 1159568); type: functional, cell-based
[21] = rise of 4N DNA cells, HeLa – IC50, dose response (AID 1117351); type: functional, cell-based
[22] = rise of 2N DNA cells, HeLa – IC50, dose response (AID 1117349); type: functional, cell-based

## COc1ccc(N)c2c1C(=O)c1ccccc1C2=O
[1]
  EC50: 119 µM (not active)
Fibrinogen beta chain [2]
  IC50: > 83.2 µM (inactive)
[3]
  EC50: 20.2 µM (inactive)
Fibrinogen beta chain [4]
  IC50: 4.98 µM (active)
[5]
  EC50: > 260 µM (inactive)
[6]
  EC50: > 91.1 µM (inactive)
[7]
  EC50: 10.7 µM (not active)
Nonstructural protein 1
  IC50: 31 µM (active)
[8]
  EC50: > 91.1 µM (inactive)

## CCC(C)n1c(=S)[nH]c2c(sc3ccc([N+](=O)[O-])cc32)c1=O (stereo not drawn)
[9]
  EC50: > 67.5 µM (inactive)
[10]
  IC50: > 67.5 µM (inactive)
[11]
  IC50: 73.3 µM (active)
Fatty acid synthase [12]
  IC50: 15.5 µM (active)
Fatty acid synthase [13]
  IC50: 17.1 µM (active)
[14]
  CC50: 100 µM (active)

## CC(C)CC(c1nnnn1C1CCCC1)N1CCN(c2ccccc2F)CC1 (stereo not drawn)
[15]
  IC50: 24.4 µM (not active)

## CC1(C)Oc2ccc3ccc(=O)oc3c2-c2c[nH]nc21
[16]
  IC50: > 31 µM (not active)
[17]
  IC50: 4.45 µM (active)
[18]
  IC50: 5.7 µM (active)

## COc1ccc(S(=O)(=O)N2CCN(C(=O)/C=C/c3ccc(F)cc3)CC2)cc1
[19]
  IC50: 0.0121 µM (active)

## C[C@H](CO)N1C[C@H](C)[C@@H](CN(C)S(=O)(=O)c2ccc(F)cc2)OCCCC[C@H](C)Oc2ccc(N(C)C)cc2C1=O
[20]
  AC50: 5.9 µM (active)

## C=C(C)[C@H]1Cc2c(ccc3c2O[C@@H]2COc4cc(OC)c(OC)cc4[C@@H]2C3=O)O1 [ROTENONE]
[21]
  IC50: 0.311 µM (active)
[22]
  IC50: 0.311 µM (active)
